# Entries after “also recorded” stand apart in the source; their conditions may differ.
# Legend:
# [1] = tested on: Candida biofilm; conditions: Table 2 of Patent Literature 1; cited from earlier work
# [2] = tested on: Candida albicans NBRC 1594; test: Evaluation of biofilm formation inhibitory effect (96-well microplate static culture, crystal violet staining, O.D. 600); format: cell-based; conditions: class by 50% inhibitory concentration, threshold 20 ppm
# Protocol: A potato dextrose agar (manufactured by Difco) was sterilized by autoclaving at 121°C for 15 minutes, added to a sterilized culture dish, and solidified to prepare an agar plate. A cryopreserved test fungus was spread on this agar plate and cultured at 30°C for 2 days. A yeast nitrogen base with 2% glucose (manufactured by Difco) was diluted 10-fold and sterilized by autoclaving at 121°C for 15 minutes. Twenty milliliters of this sterilized medium was placed into a conical flask with a baffle, and one loop of the agar-cultured test fungus was inoculated into the conical flask. Preculture was performed at 30°C with agitation at 150 rpm for 24 hours. Then, the fungal cells were collected by centrifugation (4700 rpm, 10 minutes, 20°C) . The collected fungal cells were washed with 20 mL of physiological saline and collected by centrifugation again (4700 rpm, 10 minutes, 20°C) . The collected fungal cells were resuspended in 10 mL of a Sabouraud-dextrose broth (liquid medium which contained 1.0% by mass of peptone and 4.0% by mass of glucose and was adjusted to a pH of 5.7 with 1 N hydrochloric acid, and hereinafter, it is called "SG medium"). This resuspension was diluted 20-fold with SG medium and used as a test fungal suspension. […] The test samples were separately dissolved in dimethyl sulfoxide (DMSO) to prepare test sample solutions. Two microliters of each test sample solution and 198 µL of the test fungal suspension were added to wells of a 96-well microplate (trade name: TC plate 96 well (Cell+); manufactured by Sarstedt) . The concentration of the test sample in the test sample solution was such that the concentration of the test sample in the combined total amount of the test sample solution and the test fungal suspension, i.e., the concentration of the test sample in the well would be 5 ppm, 25 ppm, 50 ppm or 100 ppm. Static culture was performed in the 96-well microplate containing the test sample solution and the test fungal suspension at 30°C for 2 days to allow biofilm formation to proceed in each well. […] After the static culture, the liquid in each well, including the test sample solution, the culture medium and the like, was removed, and the residue adherent to each well (cells, secretions, deposits, etc.) was regarded as a biofilm. To each well, 50 µL of a 0.01% by mass aqueous crystal violet solution (trade name, manufactured by Becton, Dickinson and Company) was added for staining of the biofilm. […] Then, 200 µL of ethanol was added to each well to elute the crystal violet bound to the biofilm, and the degree of formation of the biofilm adherent to the microplate was quantified. The quantification was performed by measuring the absorbance at 600 nm (O.D. 600) in each well with a microplate reader (model: SH-9000 Lab; manufactured by CORONA […] Co., Ltd.). The absorbance at 600 nm measured for the biofilm formed in the control well was used as the reference absorbance and assumed as 100% in terms of the degree of biofilm formation. The degree of biofilm formation for each test sample was calculated by comparison of the absorbance for the test sample with the reference absorbance. […] The graph of the logarithmic approximation curve was used to calculate the concentration of the test sample where the absorbance for the test sample is equal to 50% of the reference absorbance, that is, the degree of biofilm formation was 50% (hereinafter called "50% inhibitory concentration"). […]
# [3] = tested on: Candida albicans NBRC 1594; test: Evaluation of fungistatic effect (streak culture on brain heart infusion agar plate, visual observation); format: cell-based; conditions: for Evaluation of fungistatic effect: 1000 ppm-treated plot, agar plate, 30°C for 1 day; for fungicidal: conclusion drawn from fungal growth at 1000 ppm
# Protocol: Ten milliliters of a brain heart infusion agar (manufactured by Difco) was sterilized by autoclaving at 121°C for 15 minutes and then cooled down to 50°C. To this, 100 µL of a solution of the test sample in dimethyl sulfoxide (DMSO) was added, and the mixture was stirred until homogeneous. The homogeneous mixture was added to a sterilized culture dish to prepare an agar plate. The concentration of the test sample in the agar plate was 10 ppm, 100 ppm, 300 ppm or 1000 ppm. Next, one loop of a cryopreserved test fungus (Candida albicans NBRC 1594) was streaked on each agar plate and cultured at 30°C for 1 day. […] When no growth was observed along the streak line on the agar plate, the test sample was determined to be fungistatic at the indicated concentration.
Compound,effective against biofilm formation [1],Evaluation [2],Evaluation of fungistatic effect [3],fungicidal [3]
glyceryl dilaurate,less effective against biofilm formation than glyceryl monolaurate,–,–,–
"CCCCCCCCCCCC(=O)OCC(O)COC(=O)CCCCCCCCCCC [Reference product 1, monoglyceryl dilaurate, reference compound]",–,"Poor in inhibition of biofilm formation (when the 50% inhibitory concentration of the test sample was more than 20 ppm, the test sample was regarded as poor in the inhibition of biofilm formation)",not fungistatic; also recorded: Fungal growth was observed in a 1000 ppm-treated plot. No fungistatic effect,not fungicidal
"CC(=O)N1CCN(c2ccc(OCC3COC(Cn4ccnc4)(c4ccc(Cl)cc4Cl)O3)cc2)CC1 (stereo not drawn) [Reference product 2, ketoconazole, reference compound]",–,"Poor in inhibition of biofilm formation (when the 50% inhibitory concentration of the test sample was more than 20 ppm, the test sample was regarded as poor in the inhibition of biofilm formation)",–,–
diglyceryl dicaprylate [Present invention product 3],–,"Excellent in inhibition of biofilm formation (When the 50% inhibitory concentration of the test sample was 20 ppm or less, the test sample was regarded as excellent in the inhibition of biofilm formation)",Fungal growth was observed in a 1000 ppm-treated plot. No fungistatic effect.,"none of the present invention products 1, 2, 3 and 4 were fungicidal"
diglyceryl dicaprylate [Present invention product 2],–,"Excellent in inhibition of biofilm formation (When the 50% inhibitory concentration of the test sample was 20 ppm or less, the test sample was regarded as excellent in the inhibition of biofilm formation)",Fungal growth was observed in a 1000 ppm-treated plot. No fungistatic effect.,"none of the present invention products 1, 2, 3 and 4 were fungicidal"
diglyceryl monocaprylate,poorly effective against biofilm formation,–,–,–
monoglyceryl dicaprylate [Present invention product 1],–,"Excellent in inhibition of biofilm formation (When the 50% inhibitory concentration of the test sample was 20 ppm or less, the test sample was regarded as excellent in the inhibition of biofilm formation)",Fungal growth was observed in a 1000 ppm-treated plot. No fungistatic effect.,"none of the present invention products 1, 2, 3 and 4 were fungicidal"

# From patent EP3300716A1, “BIOFILM FORMATION INHIBITOR” (Riken Vitamin Co., Ltd., priority 2015, dated 2016)
